Assay results: US20240140953A1, “INHIBITORS OF MENIN-MLL INTERACTION” (BIOMEA FUSION, INC., priority 2018, published 2024)
Entries after “also recorded” stand apart in the source; their conditions may differ. Like-named read-outs stand apart in the source and are kept apart here.

Columns and labels:
HL-60 = assay: Proliferation study, CellTiterGlo, 4 days (Example 102), HL-60; format: cell-based; conditions: HL-60, 4 days treatment; for HL-60 % max: maximal inhibition; for IC50: Homo sapiens, 96 h, CellTiterGlo
Source text: (§1) The objective of the study was to evaluate the ability of representative compounds of the present invention, inhibitors of Menin/MLL interaction to inhibit cell proliferation. The proliferation inhibitory effect was investigated in two human MLL-leukemia cells selected on the bases of MLL fusion protein and listed in Table 102. HL-60 cell line was used as negative control.
(§2) ATP is present in all metabolically active cells and is considered as a marker for cell viability and proliferation. The metabolic cell activity was determined using the CellTiter-Glo kit from Promega, an ATP monitoring system based on the production of luminescence by the reaction of ATP with added UltraGlo® recombinant luciferase (Kawano et al., 2016), according to the supplier's experimental recommendations.
(§3) The described assay evaluates the ability of 4 representative compounds to inhibit the cell proliferation in the human MLL-leukemia cells plus a negative control cell line.
(§4) The assay provides potency values (IC50) for each test compound at a single time point Day 4 (T4).
(§5) Seven concentrations of the compounds (2.00E-05-6.67E-06-2.22E-06-7.41E-07-2.47E-07-8.23E-08-2.74E-08M), were assessed in duplicate in an individual test occasion in all the cell lines. MI-503 (Borkin et al., 2015) was used as reference compound and was tested at the same concentrations as the NCEs. 100% of proliferation is represented by the untreated cells (0.2% DMSO). The cell growth was monitored up to 4 days in culture.
(§6) MV4-11, MOLM-13 and HL-60 cells (see Table 2) were maintained in RPMI-1640 medium (Invitrogen, Cat. n. 618700, Batch n. 1965930) supplemented with 10% of Heat Inactivated FBS (Invitrogen, Cat n. 10500, Batch n. 08Q8078K) and 1% Pen-Strep (Invitrogen, Cat. N. 15140, Batch n. 1910859) and cultured at 37° C. in a humidified incubator with 5% CO2. All the cell lines grow in suspension and the cell density was maintained in a range of 2×10^5-1×10^6 viable cells/ml. Cells were pelleted at 130 g×5 min and conditioned medium was used to dilute the cell suspension.
(§7) Test items were dissolved in glass vials at 10 mM in DMSO with purity ≥99.9% (Sigma, D8418, batch n. SHBH4245V) and stored at −20° C. in 1.5 mL Eppendorf tubes.
(§8) Serial dilutions 1 to 3 in DMSO 100% were prepared starting from a 10 mM stock solutions to generate 7 points concentration response curve (CRC).
(§9) For each plate to test, one 0.4 μL copy plate and four 0.3 μL copy plates were then stamped into 96-well plates not treated for cell adhesion (Sarstedt—cat.no. 82.1581.001) by acoustic liquid Handling, Echo, at a concentration which was 500 fold the final assay concentration. Stamped plates were stored at −20° C. The final concentrations for the reference compound, MI-503, and the test items were: 2.00E-05, 6.67E-06, 2.22E-06, 7.41E-07, 2.47E-07, 8.23E-08 and 2.74E-08 M.
(§10) Cells were plated in 96-well flat bottom microtiter plates at cell density of 15,000 cells/ml for HL-60, 1000 cells/ml for MOLM-13 and 10,000 cell/ml for MV4-11. Cells were treated with 0.2% DMSO (Sigma, D8418, batch n. SHBH4245V) or serial dilutions of compounds (0.027 μM-20 μM) in DMSO (0.2% final concentration). Cells were incubated in a 5% CO2 incubator at 37° C. for 4 days. A CellTiterGlo viability assay (Promega) was employed. Luminescence was read by using VictorV (Perkin Elmer) multilabel plate reader using the standard protocol for luminescence in 96 well plate. The experiment was performed in duplicate.
(§11) Data were expressed as % of inhibition compared to the 0.2% DMSO negative control, and was calculated as follows: […]
(§12) CRCs were analysed by GraphPad and IC50 values were calculated by non-linear regression using 4 parameter-logistic equation. IC50 (μM) values were reported in the final data table. The curve fittings were performed leaving free all the parameters. Any constrain were reported in the results table.

MOLM-13 (MLL-AF9) = assay: Proliferation study, CellTiterGlo, 4 days (Example 102), MOLM-13; format: cell-based, human; conditions: MOLM-13, 4 days treatment; for IC50: Homo sapiens, 96 h, CellTiterGlo; for MOLM-13 (MLL-AF9) % max: maximal inhibition
Source text: as §1, §2, §3, §4, §5, §6, §7, §8, §9, §10, §11, §12

[1] = read-out: HL-60 pIC50 (converted)
[2] = read-out: MOLM-13 (MLL-AF9) IC50
[3] = read-out: MOLM-13 (MLL-AF9) pIC50 (converted)

Compound	HL-60 % max (HL-60) [%]	IC50 (HL-60; read-out: HL-60 IC50) [µM]	IC50 (HL-60; [1]) [µM]	IC50 (MOLM-13 (MLL-AF9); [2]) [µM]	IC50 (MOLM-13 (MLL-AF9); [3]) [µM]	MOLM-13 (MLL-AF9) % max (MOLM-13 (MLL-AF9)) [%]	inhibition of cell viability (in words) (HL-60; up to 20 μM)	inhibition of cell viability (in words) (MOLM-13 (MLL-AF9); up to 20 μM)
O=C(Nc1ccc(-c2cc3c(N4CCOCC4)ncnc3[nH]2)cc1)Nc1cc(-c2cccnc2)n[nH]1 [Compound 9, 1-{4-[4-(morpholin-4-yl)-7H-pyrrolo[2,3-d]pyrimidin-6-yl]phenyl}-3-[3-(pyridin-3-yl)-1H-pyrazol-5-yl]urea]	69	0.32	0.316	0.32	0.324	94	–	–
Cn1nc(-c2cccnc2)cc1CC(=O)Nc1ccc(-c2cc3c(N4CCOCC4)ncnc3[nH]2)cc1 [Compound 11, 2-[1-methyl-3-(pyridin-3-yl)-1H-pyrazol-5-yl]-N-{4-[4-(morpholin-4-yl)-7H-pyrrolo[2,3-d]pyrimidin-6-yl]phenyl}acetamide]	102	0.51	0.513	0.26	0.257	95	–	–
O=C(Cc1cc(-c2cccnc2)n[nH]1)Nc1ccc(-c2nc3c(N4CCOCC4)ncnc3[nH]2)cc1 [Compound 12, N-{4-[6-(morpholin-4-yl)-9H-purin-8-yl]phenyl}-2-[3-(pyridin-3-yl)-1H-pyrazol-5-yl]acetamide]	–	> 20	> 20	~0.71	~0.708	–	not active up to the highest concentration tested; also recorded: completely inactive up to the highest concentration tested	slightly active
